Assay results as given in patent publication US20230147468A1, “RECOMBINANT PEPTIDE TO TREAT FIRE BLIGHT” (INNATE IMMUNITY LLC, priority 2020, published 2023).
No end group written: not given here.

Key:
[1] = system: Erwinia amylovora (ATCC 49946); experiment: Minimum inhibitory concentration, serial dilutions of peptide; format: cell-based; details: for activity against Erwinia amylovora (MIC assay): Erwinia amylovora ATCC 49946, serial dilutions
Xanthomonas perforans = experiment: Minimum inhibitory concentration assay; format: cell-based; details: causes spot in tomato
Pseudomonas syringae = experiment: Minimum inhibitory concentration assay; format: cell-based; details: causes speck in tomato
Ralstonia solanaeceum = format: cell-based; details: causes bacterial wilt in tomato
[2] = system: Xanthomonas euvesicatoria; experiment: Minimum inhibitory concentration assay; format: cell-based; details: causes spot in tomato
apple reference gene = experiment: Detached leaf assay, Ct of apple reference gene; format: in vivo; details: detached apple leaves treated with 28P-2
Source text: Water was used as a control.

Sequence: KEIVRRIEKFLRGPGRKRIVERIEKFLR [28P-8]
- activity against Erwinia amylovora (MIC assay) [1]: active

Sequence: KVLSRVHAALKSIFDLGPGRKVLSRVHAALKSIFDL [36P]
- activity against Xanthomonas perforans (Xanthomonas perforans): significant activity
- activity against Pseudomonas syringae (Pseudomonas syringae): significant activity
- activity against Ralstonia solanaeceum (Ralstonia solanaeceum): significant activity
- toxicity to Erwinia amylovora by MIC, compared with 28P-2 ([1]; 36P relative to 28P-2, FIG. 5): significantly more toxic
- activity against Erwinia amylovora (MIC assay) [1]: significant activity
- activity against Xanthomonas euvesicatoria [2]: significant activity

Sequence: KRIVQRIKDFLRGPGRKRIVQRIKDFLR [28P-2]
- level (Ct) of apple reference gene upon treatment (apple reference gene): remained unchanged

Sequence: KLIKLIKKILKKGPGRKLIKLIKKILKK [28P-4]
- activity against Erwinia amylovora (MIC assay) [1]: active
